# Where a SMILES comes first, the peptide text is derived from it. Bridges are numbered along the chain shown (N, C = ends). [ ]: non-standard residue; d: D form. S5 = C=CCCC[C@](C)(N)C(=O)O
# Target: airway epithelial SNAREs, Syt2, Munc13-2*, Munc18-2, NSF, and αSNAP (Rattus norvegicus, UniProt P29101)
# Test: Single vesicle content mixing assay, airway system with complete reconstitution
# Format: biochemical
# Settings: for Ca2+ independent fusion events / Ca2+ triggered fusion events: Munc13-2* + 10 μM SP9, raw count
# Description: FIGS. 3A-3G show the effect of stapled peptides on fusion with complete airway system reconstitution according to certain aspects of this disclosure. […] PM: vesicles with reconstituted Stx3 and SNAP-23 that mimic the plasma membrane of epithelial cells; SM: vesicles with reconstituted Stx3/Munc18-2 complex; SG: mucin-containing secretory granules. 0.5 μM Munc13-2* fragment was added after formation of the SM vesicles and during all subsequent stages. 10 μM stapled peptide was added together with SG vesicles and was present during all subsequent stages. […] The fusion probabilities and amplitudes were normalized to the number of analyzed SG—airway PM vesicle pairs (see TABLE 4). FIGS. 3C, 3E, 3F, and 3G show means±SEM for multiple independent repeat experiments (see TABLE 2).
# For single vesicle content mixing assay, the lipid composition of the SV, SG, VAMP2, or VAMP8 vesicles was phosphatidylcholine (PC) (48%), phosphatidylethanolamine (PE) (20%), phosphatidylserine (PS) (12%), and cholesterol (20%); for both the neuronal and airway PM vesicles the lipid composition was Brain Total Lipid Extract supplemented 3.5 mol % PIP2, and 0.1 mol % biotinylated phosphatidylethanolamine (PE).
# The reconstitution method for neuronal PM and SV vesicles was described in detail previously (see Lai et al., 2017; Kyoung et al., 2011; and Lai et al., 2014). The same methods were used for airway PM, SG, VAMP2, and VAMP8 vesicles. Dried lipid films were dissolved in 110 mM OG buffer containing purified proteins at protein-to-lipid ratios of 1:200 for VAMP2 and Stx1A for SV and neuronal PM vesicles, respectively (or 1:200 for VAMP8 and Stx3 for SG and airway PM vesicles, respectively), and 1:800 for Syt1 for SV vesicles (or 1:1200 for Syt2 for SG vesicles).
# A 3-5 fold excess of SNAP-25A or SNAP-23 (with respect to Stx1A or Stx3) and 3.5 mol % PIP2 were added to the protein-lipid mixture for neuronal or airway PM vesicles. […] For the preparation of SV, SG, VAMP2, or VAMP8 vesicles for single vesicle content mixing assay, 50 mM sulforhodamine B (Thermo Fisher Scientific) was added to the protein-lipid mixture. The vesicles subsequently formed during size exclusion chromatography using a Sepharose CL-4B column, packed under near constant pressure by gravity with a peristaltic pump (GE Healthcare) in a 5.5 ml column with a ˜5 ml bed volume that was equilibrated with buffer V (20 mM HEPES, pH 7.4, 90 mM NaCl) supplemented with 20 μM EGTA and 0.1% 2-mercaptoethanol. The eluent was subjected to dialysis into 21 of detergent-free buffer V supplemented with 20 μM EGTA, 0.1% 2-mercaptoethanol, 5 g of Bio-beads SM2 (Bio-Rad) and 0.8 g/L Chelex 100 resin (Bio-Rad). After 4 hours, the buffer was exchanged with 21 of fresh buffer V supplemented with 20 μM EGTA, 0.1% 2-mercaptoethanol and Bio-beads, and the dialysis continued for another 12 h (overnight). […] For ensemble lipid mixing assay, the reconstitution method is the same as that for the single vesicle content mixing assay, except that 50 mM sulforhodamine B was omitted for all the steps.
# Single vesicle content mixing experiments. All single vesicle fusion and single molecule experiments were performed on a prism-type total internal reflection fluorescence (TIRF) microscope using 532 nm (green) laser (CrystaLaser) excitation. Two observation channels were created by a 640 nm single-edge dichroic beamsplitter (FF640-FDi01-25x36, Shemrock): one channel was used for the fluorescence emission intensity of the content dyes and the other channel for that of the Cy5 dye that are part of the injected Ca^2+-solution. The two channels were recorded on two adjacent rectangular areas (45×90 m^2) of a charge-coupled device (CCD) camera (iXon+DV 897E, Andor Technology). The imaging data were recorded with the smCamera software developed by Taekjip Ha, Johns Hopkins University, Baltimore. […]
# Sequence of airway epithelial SNAREs, Syt2, Munc13-2*, Munc18-2, NSF, and αSNAP (P29101 whole entry): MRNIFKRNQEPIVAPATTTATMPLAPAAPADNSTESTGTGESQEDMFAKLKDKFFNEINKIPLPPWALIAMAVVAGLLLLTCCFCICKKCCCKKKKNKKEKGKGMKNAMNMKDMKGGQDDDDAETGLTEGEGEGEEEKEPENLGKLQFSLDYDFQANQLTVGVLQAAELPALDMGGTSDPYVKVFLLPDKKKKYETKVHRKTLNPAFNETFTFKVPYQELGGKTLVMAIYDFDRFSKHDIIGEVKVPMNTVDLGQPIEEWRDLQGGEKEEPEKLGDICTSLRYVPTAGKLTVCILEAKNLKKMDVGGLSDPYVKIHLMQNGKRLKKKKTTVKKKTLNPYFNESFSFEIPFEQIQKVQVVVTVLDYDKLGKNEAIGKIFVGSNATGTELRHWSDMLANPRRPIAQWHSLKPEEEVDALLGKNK
smiles,measurement,setting,value
"CC[C@H](C)[C@H](NC(=O)[C@]1(C)CCCC=CCCC[C@](C)(NC(=O)[C@H](CCC(=O)O)NC(=O)[C@H](CCC(=O)O)NC(C)=O)C(=O)N[C@@H](CCCCN)C(=O)N[C@@H](CC(=O)O)C(=O)N[C@@H](C)C(=O)N1)C(=O)N[C@@H](CCCNC(=N)N)C(=O)N[C@@]1(C)CCCC=CCCC[C@@](C)(C(=O)N[C@@H](CC(=O)O)C(=O)N[C@@H](CCC(=O)O)C(=O)N[C@@H](CCC(N)=O)C(=O)N[C@@H](CS)C(N)=O)NC(=O)[C@H](CCSC)NC(=O)[C@H](C(C)C)NC(=O)[C@H](CC(C)C)NC1=O [SP9, Ac-EE(S5)KDA(S5)IR(S5)LVM(S5)DEQC-amide] (Ac-EE[S5]KDA[S5]IR[S5]LVM[S5]DEQC-NH2; staple 3-7, 10-14)",effect on Ca2+-independent fusion probability,10 μM peptide,only moderately reduced
same,effect on vesicle association,10 μM peptide,no effect
same,"effect on Ca2+-triggered fusion amplitude, cumulative fusion probability and synchronization","10 μM peptide, both 50 μM and 500 μM Ca2+",strongly inhibited
same,Ca2+ independent fusion events,50 μM Ca2+ experiment,23
same,Ca2+ triggered fusion events,50 μM Ca2+,89
same,Ca2+ independent fusion events,500 μM Ca2+ experiment,41
same,Ca2+ triggered fusion events,500 μM Ca2+,106
